Where two headings read alike, the source gives them in different places.
Key:
Experiment in all cases: SelectScreen Z-LYTE kinase activity assay (SI Table 6)
Assay type in all cases: biochemical
[1] = molecular target: protein kinases of the Z-LYTE panel (Homo sapiens, UniProt P00533)
Summary of the method: (§1)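 A counterscreen of 133 protein and 7 lipid kinases was run with one compound concentration, 1 μM 1938, in SelectScreen Adapta, Lantha or Z-LYTE assays.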

[2] = molecular target: protein kinases of the Z-LYTE panel (Homo sapiens, UniProt P07947)
Summary of the method: as §1

[3] = molecular target: protein kinases of the Z-LYTE panel (Homo sapiens, UniProt P08581)
Summary of the method: as §1

[4] = molecular target: protein kinases of the Z-LYTE panel (Homo sapiens, UniProt P11362)
Summary of the method: as §1

[5] = molecular target: protein kinases of the Z-LYTE panel (Homo sapiens, UniProt P16591)
Summary of the method: as §1

[6] = molecular target: protein kinases of the Z-LYTE panel (Homo sapiens, UniProt P28482)
Summary of the method: as §1

[7] = molecular target: protein kinases of the Z-LYTE panel (Homo sapiens, UniProt P49841)
Summary of the method: as §1

[8] = molecular target: protein kinases of the Z-LYTE panel (Homo sapiens, UniProt Q13554)
Summary of the method: as §1

[9] = molecular target: protein kinases of the Z-LYTE panel (Homo sapiens, UniProt Q9HCP0)
Summary of the method: as §1

[10] = molecular target: T1, protein kinases of the Z-LYTE panel (Homo sapiens, UniProt Q9UHD2)
T1 sequence (Q9UHD2 1-729): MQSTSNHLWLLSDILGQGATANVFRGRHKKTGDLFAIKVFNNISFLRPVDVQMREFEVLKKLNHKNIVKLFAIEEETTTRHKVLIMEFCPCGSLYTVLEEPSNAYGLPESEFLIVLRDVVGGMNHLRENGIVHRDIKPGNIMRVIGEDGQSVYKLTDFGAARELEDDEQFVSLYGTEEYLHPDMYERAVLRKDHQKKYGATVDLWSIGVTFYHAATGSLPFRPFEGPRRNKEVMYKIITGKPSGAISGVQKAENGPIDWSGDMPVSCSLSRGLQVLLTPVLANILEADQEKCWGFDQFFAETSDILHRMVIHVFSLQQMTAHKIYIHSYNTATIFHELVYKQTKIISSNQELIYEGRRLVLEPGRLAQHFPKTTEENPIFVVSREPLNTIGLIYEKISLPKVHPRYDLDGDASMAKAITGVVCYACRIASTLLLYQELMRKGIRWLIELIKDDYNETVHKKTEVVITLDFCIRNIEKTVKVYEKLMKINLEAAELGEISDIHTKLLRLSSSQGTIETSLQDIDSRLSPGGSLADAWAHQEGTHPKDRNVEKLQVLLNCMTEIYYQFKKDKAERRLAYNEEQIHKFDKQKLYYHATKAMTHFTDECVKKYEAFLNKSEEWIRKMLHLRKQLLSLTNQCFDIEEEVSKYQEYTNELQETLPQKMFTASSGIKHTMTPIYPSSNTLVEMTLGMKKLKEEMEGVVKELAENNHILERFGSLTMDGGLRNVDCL
Summary of the method: as §1

Sequence of protein kinases of the Z-LYTE panel (Homo sapiens, UniProt P00533) (P00533 25-1210): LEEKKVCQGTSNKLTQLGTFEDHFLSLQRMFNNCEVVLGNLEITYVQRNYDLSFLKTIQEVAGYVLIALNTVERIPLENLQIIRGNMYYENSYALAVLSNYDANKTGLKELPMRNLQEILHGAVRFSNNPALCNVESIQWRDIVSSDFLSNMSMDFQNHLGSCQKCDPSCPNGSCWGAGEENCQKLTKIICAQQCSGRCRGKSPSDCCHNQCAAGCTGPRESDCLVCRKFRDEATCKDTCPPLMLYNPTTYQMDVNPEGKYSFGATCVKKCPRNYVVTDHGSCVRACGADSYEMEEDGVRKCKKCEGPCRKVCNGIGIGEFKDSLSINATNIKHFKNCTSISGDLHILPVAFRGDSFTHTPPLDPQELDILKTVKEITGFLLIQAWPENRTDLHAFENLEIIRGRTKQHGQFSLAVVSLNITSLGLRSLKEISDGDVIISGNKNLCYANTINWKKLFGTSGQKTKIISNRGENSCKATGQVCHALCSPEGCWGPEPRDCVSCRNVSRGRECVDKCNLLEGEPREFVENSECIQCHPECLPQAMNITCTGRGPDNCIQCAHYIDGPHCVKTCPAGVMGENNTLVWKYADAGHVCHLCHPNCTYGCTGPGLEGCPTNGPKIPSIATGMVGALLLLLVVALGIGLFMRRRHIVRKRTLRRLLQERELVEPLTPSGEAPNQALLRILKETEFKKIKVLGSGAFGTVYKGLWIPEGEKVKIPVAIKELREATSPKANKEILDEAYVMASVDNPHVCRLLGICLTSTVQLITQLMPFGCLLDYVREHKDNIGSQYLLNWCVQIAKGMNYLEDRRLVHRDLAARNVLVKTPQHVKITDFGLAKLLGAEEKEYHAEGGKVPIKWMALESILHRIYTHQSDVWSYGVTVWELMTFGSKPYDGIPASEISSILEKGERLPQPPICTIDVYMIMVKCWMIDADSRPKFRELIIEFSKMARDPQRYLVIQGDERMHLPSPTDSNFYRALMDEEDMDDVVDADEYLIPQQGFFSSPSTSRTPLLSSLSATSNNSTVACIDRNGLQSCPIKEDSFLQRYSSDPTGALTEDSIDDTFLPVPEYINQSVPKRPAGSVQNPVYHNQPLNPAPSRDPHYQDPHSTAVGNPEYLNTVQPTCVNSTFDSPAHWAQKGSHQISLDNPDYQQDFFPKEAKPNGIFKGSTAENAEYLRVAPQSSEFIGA
Sequence of protein kinases of the Z-LYTE panel (Homo sapiens, UniProt P49841) (P49841 whole entry): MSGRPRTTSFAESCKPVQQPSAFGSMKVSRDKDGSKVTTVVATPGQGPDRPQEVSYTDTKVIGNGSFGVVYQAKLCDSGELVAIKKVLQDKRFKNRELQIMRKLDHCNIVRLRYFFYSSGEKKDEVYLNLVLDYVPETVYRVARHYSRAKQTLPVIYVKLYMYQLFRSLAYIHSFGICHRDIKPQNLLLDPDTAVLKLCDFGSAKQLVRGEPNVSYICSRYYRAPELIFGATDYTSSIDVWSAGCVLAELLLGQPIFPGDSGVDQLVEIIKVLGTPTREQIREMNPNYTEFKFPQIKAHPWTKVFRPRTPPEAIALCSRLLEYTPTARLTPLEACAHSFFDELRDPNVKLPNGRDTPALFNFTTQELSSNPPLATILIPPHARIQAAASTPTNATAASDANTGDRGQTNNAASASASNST
Sequence of protein kinases of the Z-LYTE panel (Homo sapiens, UniProt P28482) (P28482 whole entry): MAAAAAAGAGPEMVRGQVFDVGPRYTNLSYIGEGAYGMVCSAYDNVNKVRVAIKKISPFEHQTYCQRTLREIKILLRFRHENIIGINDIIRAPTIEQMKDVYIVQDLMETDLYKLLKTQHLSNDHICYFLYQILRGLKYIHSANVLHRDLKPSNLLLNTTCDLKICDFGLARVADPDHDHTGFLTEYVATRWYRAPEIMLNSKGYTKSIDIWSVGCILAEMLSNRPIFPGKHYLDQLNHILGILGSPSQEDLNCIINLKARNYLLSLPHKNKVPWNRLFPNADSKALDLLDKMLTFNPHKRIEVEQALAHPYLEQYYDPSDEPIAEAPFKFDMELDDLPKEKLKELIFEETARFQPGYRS
Sequence of protein kinases of the Z-LYTE panel (Homo sapiens, UniProt P08581) (P08581 25-1390): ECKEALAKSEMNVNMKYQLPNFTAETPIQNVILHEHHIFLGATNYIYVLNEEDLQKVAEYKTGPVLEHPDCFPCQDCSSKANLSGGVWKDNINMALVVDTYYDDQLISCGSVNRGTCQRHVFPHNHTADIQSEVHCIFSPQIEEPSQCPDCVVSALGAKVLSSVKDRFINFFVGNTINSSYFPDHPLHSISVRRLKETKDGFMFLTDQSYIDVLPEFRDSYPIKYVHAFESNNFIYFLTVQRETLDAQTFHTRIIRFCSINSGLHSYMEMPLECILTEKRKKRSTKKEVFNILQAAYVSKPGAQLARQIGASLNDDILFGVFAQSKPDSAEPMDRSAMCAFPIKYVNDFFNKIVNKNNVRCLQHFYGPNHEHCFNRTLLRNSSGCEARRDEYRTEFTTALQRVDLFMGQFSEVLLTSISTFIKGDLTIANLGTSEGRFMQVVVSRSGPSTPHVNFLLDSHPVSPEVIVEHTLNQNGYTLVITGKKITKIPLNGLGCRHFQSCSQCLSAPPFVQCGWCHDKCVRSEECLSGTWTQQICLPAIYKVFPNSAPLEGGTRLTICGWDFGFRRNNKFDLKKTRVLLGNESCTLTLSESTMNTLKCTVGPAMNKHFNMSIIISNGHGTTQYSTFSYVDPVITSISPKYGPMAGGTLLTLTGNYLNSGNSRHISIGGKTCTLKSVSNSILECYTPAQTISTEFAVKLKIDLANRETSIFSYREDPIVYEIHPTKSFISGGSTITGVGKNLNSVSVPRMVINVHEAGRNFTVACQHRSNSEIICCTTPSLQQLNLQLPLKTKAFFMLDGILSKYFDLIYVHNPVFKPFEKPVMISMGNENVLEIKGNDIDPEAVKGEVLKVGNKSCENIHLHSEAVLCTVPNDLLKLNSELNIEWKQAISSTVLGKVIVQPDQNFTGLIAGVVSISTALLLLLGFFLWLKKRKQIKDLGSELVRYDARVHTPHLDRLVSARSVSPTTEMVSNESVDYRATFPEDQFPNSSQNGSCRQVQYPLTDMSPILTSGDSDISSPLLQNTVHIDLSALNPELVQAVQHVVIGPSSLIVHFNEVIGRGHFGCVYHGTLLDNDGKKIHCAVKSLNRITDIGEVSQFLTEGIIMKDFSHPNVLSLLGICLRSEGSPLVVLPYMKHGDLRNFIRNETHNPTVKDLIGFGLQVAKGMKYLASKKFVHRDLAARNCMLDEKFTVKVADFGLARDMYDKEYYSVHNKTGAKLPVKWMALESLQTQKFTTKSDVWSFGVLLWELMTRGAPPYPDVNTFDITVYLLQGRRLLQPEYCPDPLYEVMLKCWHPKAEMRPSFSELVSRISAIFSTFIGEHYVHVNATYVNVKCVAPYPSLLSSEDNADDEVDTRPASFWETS
Sequence of protein kinases of the Z-LYTE panel (Homo sapiens, UniProt P16591) (P16591 whole entry): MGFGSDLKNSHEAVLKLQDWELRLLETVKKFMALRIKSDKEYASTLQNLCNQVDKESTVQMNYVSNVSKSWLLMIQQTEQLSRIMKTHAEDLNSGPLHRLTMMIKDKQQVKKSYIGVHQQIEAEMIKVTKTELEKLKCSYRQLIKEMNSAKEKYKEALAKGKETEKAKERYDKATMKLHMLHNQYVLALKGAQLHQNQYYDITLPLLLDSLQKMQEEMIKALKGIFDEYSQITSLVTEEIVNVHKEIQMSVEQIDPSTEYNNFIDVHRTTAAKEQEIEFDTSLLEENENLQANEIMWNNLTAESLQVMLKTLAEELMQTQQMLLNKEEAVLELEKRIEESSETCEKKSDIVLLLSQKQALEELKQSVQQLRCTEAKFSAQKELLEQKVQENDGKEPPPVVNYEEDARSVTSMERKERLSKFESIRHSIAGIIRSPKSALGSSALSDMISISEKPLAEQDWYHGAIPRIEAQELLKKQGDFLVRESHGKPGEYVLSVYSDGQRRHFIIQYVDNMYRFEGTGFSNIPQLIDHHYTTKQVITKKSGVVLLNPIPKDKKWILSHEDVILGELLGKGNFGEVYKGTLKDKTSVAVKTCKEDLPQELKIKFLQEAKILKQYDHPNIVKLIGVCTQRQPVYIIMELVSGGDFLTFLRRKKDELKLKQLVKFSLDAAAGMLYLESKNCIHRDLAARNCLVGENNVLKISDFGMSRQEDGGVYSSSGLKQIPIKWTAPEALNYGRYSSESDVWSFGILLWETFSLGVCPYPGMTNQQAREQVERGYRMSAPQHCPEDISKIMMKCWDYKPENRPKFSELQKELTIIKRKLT
Sequence of protein kinases of the Z-LYTE panel (Homo sapiens, UniProt Q13554) (Q13554 whole entry): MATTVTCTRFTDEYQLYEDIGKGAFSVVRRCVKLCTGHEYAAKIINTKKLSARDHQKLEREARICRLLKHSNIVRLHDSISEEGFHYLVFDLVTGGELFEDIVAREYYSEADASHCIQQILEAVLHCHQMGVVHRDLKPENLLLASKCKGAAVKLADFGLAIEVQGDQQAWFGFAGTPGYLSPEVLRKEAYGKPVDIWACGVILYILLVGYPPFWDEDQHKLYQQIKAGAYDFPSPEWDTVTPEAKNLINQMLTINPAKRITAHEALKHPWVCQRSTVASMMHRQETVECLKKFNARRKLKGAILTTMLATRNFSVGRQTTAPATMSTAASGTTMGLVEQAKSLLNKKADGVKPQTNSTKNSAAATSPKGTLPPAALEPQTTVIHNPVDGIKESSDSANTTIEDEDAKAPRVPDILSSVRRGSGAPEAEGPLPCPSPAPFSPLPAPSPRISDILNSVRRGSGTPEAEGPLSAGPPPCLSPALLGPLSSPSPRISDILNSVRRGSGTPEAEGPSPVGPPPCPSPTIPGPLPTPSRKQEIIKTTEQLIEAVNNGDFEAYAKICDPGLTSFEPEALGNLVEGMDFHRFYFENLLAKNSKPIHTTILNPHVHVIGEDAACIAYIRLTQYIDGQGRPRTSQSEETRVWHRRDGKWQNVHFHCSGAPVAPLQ

## CCN1CCN(c2ccc(Nc3cc(Nc4cccc5c4N(C(C)=O)CC5)ccn3)cc2)CC1 [Compound 1938]
[1]; read-out: % Inhibition Point 1
  inhibition at 1 µM: 18%
[1]; read-out: % Inhibition Point 2
  inhibition at 1 µM: 17%
[1]; read-out: % Inhibition mean
  inhibition at 1 µM: 18%
[2]; read-out: % Inhibition Point 1
  inhibition at 1 µM: 27%
[2]; read-out: % Inhibition Point 2
  inhibition at 1 µM: 30%
[2]; read-out: % Inhibition mean
  inhibition at 1 µM: 29%
[3]; read-out: % Inhibition Point 1
  inhibition at 1 µM: 8%
[3]; read-out: % Inhibition Point 2
  inhibition at 1 µM: 29%
[3]; read-out: % Inhibition mean
  inhibition at 1 µM: 19%
[4]; read-out: % Inhibition Point 1
  inhibition at 1 µM: 25%
[4]; read-out: % Inhibition Point 2
  inhibition at 1 µM: 23%
[4]; read-out: % Inhibition mean
  inhibition at 1 µM: 24%
[5]; read-out: % Inhibition Point 1
  inhibition at 1 µM: -5.31%
[5]; read-out: % Inhibition Point 2
  inhibition at 1 µM: -2.44%
[5]; read-out: % Inhibition mean
  inhibition at 1 µM: -4%
[6]; read-out: % Inhibition Point 1
  inhibition at 1 µM: -0.368%
[6]; read-out: % Inhibition Point 2
  inhibition at 1 µM: 13%
[6]; read-out: % Inhibition mean
  inhibition at 1 µM: 6.48%
[7]; read-out: % Inhibition Point 1
  inhibition at 1 µM: 5.38%
[7]; read-out: % Inhibition Point 2
  inhibition at 1 µM: 5%
[7]; read-out: % Inhibition mean
  inhibition at 1 µM: 5%
[8]; read-out: % Inhibition Point 1
  inhibition at 1 µM: 8%
[8]; read-out: % Inhibition Point 2
  inhibition at 1 µM: 6%
[8]; read-out: % Inhibition mean
  inhibition at 1 µM: 7%
[9]; read-out: % Inhibition Point 1
  inhibition at 1 µM: 0.622%
[9]; read-out: % Inhibition Point 2
  inhibition at 1 µM: -0.215%
[9]; read-out: % Inhibition mean
  inhibition at 1 µM: 0.204%
[10]; read-out: % Inhibition Point 1
  inhibition at 1 µM: 4%
[10]; read-out: % Inhibition Point 2
  inhibition at 1 µM: 7.54%
[10]; read-out: % Inhibition mean
  inhibition at 1 µM: 6%

— PMC7614683, “A small molecule PI3Kα activator for cardioprotection and neuroregeneration” (Nature, 2023)
